The values that follow come from paper PMC4644118 (Journal of medicinal chemistry, 2015).

SMILES strings stand for the structures.

The conditions of series [1]: mice; background statement on previous lead; cited from earlier work.
For another series, the target named is rat nNOS (Rattus norvegicus, UniProt P29476). The series is described as follows: hemoglobin capture assay, purified rat nNOS. Format: biochemical. As to conditions: relative to 21.

For the compound `Cl.Cl.Nc1ccc2ccc(CCNCCc3cccc(F)c3)cc2n1` [Compound 1], in series [1], the “oral bioavailability and brain permeation” value was “good oral bioavailability and brain permeation”. Consider `Cl.Cl.Nc1ccc2ccc(COc3cccnc3)cc2n1` [Compound 11, 7-[(Pyridin-3-yloxy)methyl]quinolin-2-amine Dihydrochloride], for which, at rat nNOS, the “fold weaker binding to nNOS than 21” value is listed as around 17 fold.
